Reference: patent US20210267978A1, “NANOPARTICLE FORMULATIONS OF IKE AND METHODS OF USE THEREOF” (The Trustees of Columbia University in the City of New York, priority 2018, published 2021)

Tests used:
[1] = IKE efficacy study, mouse weight; format: in vivo, NCG mice; conditions: 14 days, starting from day 9
Description: IKE was dissolved in 5% DMSO/95% HBSS at pH 4 to create a 4 mg/mL solution. 5% DMSO/95% HBSS at pH 4 was used as vehicle 1. IKE PEG-PLGA nanoparticles and unfunctionalized PEG-PLGA nanoparticles (without IKE loading) (vehicle 2) prepared with a NanoAssemblr were dialyzed with deionized water overnight, the water was changed at least twice. Dialyzed IKE-PEG-PLGA nanoparticles and unfunctional PEG-PLGA nanoparticles were concentrated by Amicon Ultra-15 Centrifugal Filter Units to create a solution with 80 mg/mL PEG-PLGA nanoparticles. All above solutions were sterilized by filter through a 0.2 μm syringe filter.
NCG mice, 6-weeks old, were injected with 10 million SUDHLO-6 cells subcutaneously. […] Tumor volume was measured daily with electronic caliper and calculated using the formula: 0.5×length×width^2. […] Tumor volume change was analyzed in Prism using one-way ANOVA. Tumor tissues were analyzed as described in the RT-qPCR, immunofluorescence, TBARS, and lipidomics sections below.
We investigated the efficacy of IKE in vivo in male NCG mice bearing SUDHL6 subcutaneous xenografts. […] During the experimental period, mouse weight and tumor volume were measured daily to determine IKE's antitumor effect and possible toxicity. Tumor growth was calculated as the fold change relative to original tumor volume on day 0 before the first dose (FIG. 4C). […]

[2] = system: SUDHL6 xenograft tumor tissue; assay: Immunofluorescence on frozen tumor sections from efficacy study (COX-2, MDA, 8-OHdG); format: in vivo, NCG mice
Description: NCG mice, 6-weeks old, were injected with 10 million SUDHLO-6 cells subcutaneously. The mice were treated after the tumor size reached 100 mm^3. Mice were separated randomly into treatment groups and dosed with 23 mg/kg IKE, 40 mg/kg IKE, 23 mg/kg IKE PEG-PLGA nanoparticles (equal to 700 mg/kg PEG-PLGA), vehicle 1 (based on volume), and vehicle 2 (700 mg/kg PEG-PLGA) once daily by IP for 14 days. Tumor volume was measured daily with electronic caliper and calculated using the formula: 0.5×length×width^2. 3 h after the final dosage, mice were euthanized with CO2 and tumor tissue was dissected, weighed, divided into 4-6 segments, frozen, and stored at −80° C. Tumor volume change was analyzed in Prism using one-way ANOVA. Tumor tissues were analyzed as described in the RT-qPCR, immunofluorescence, TBARS, and lipidomics sections below.
Tumor tissues were fixed in 4% paraformaldehyde (PFA) for 24 h at 4° C. followed by washing with PBS three times. The tissues were perfused in 30% sucrose for 24 h at 4° C. for cryo-protection. The samples were embedded in OCT cryostat sectioning medium, and then moved directly into a cryostat. After equilibration of temperature, frozen tumor tissues were cut into 5 μm thick sections. Tissue sections were mounted on to poly-L-lysine coated slides by placing the cold sections onto warm slides. Slides were stored at −80° C. until staining. For staining, slides were warmed to room temperature followed by washing with PBS twice. A hydrophobic barrier pen was used to draw a circle on each slide. The slides were permeabilized with PBS/0.4% Triton X-100 twice before non-specific-binding blocking by incubating the sections with 10% goat serum (ThermoFisher 50197Z) for 30 minutes at room temperature. The sections were separately incubated with mouse anti-MDA mAb 1F83 (1:1000 dilution), anti-cyclooxygenase 2 (COX 2, AKA PTGS2) antibody (Abcam, ab15191, 1:200 dilution), or anti-8-OH-dG (DNA/RNA damage) antibody (Abcam, ab62623, 1:200 dilution) overnight at 4° C. in humidified chambers. Sections were washed with PBST for twice before incubating with goat anti-mouse IgG H&L (Alexa Fluor 647) (Abcam, ab150115, 1:1000 dilution) or goat anti-rabbit IgG H&L highly cross-absorbed secondary antibody (Alexa Fluor488, Thermo Fisher Scientific, A-11034, 1:1000) at room temperature for 1 h. Slides were then washed twice with PBST. ProLong Diamond antifade mountant with DAPI (ThermoFisher P36962) was added onto slides, which were then covered with the coverslips, sealed by clear fingernail polish and observed under confocal microscopy. All images were captured on a Zeiss LSM 800 confocal microscope at Plan-Apochromat 63×/1.40 Oil DIC objective with constant laser intensity for all analyzed samples. The intensity above threshold of the fluorescent signal of the bound antibodies was analyzed using NIH ImageJ software. Data were expressed as fold change comparing with the vehicle.

mouse weight ([1]; 23 mg/kg daily): weight loss | mouse weight ([1]; 40 mg/kg daily): weight loss
Structure (SMILES): CC(C)Oc1ccc(C(=O)Cn2ccnc2)cc1-n1c(CN2CCN(C(=O)COc3ccc(Cl)cc3)CC2)nc2ccccc2c1=O [IKE, Imidazole ketone erastin]
increase in 8-OHdG intensity (immunofluorescence) ([2]; 23 mg/kg daily for 14 days): 1.8 fold | increase in COX-2 intensity (immunofluorescence) ([2]; 23 mg/kg daily for 14 days): 2.0 fold | increase in MDA intensity (immunofluorescence) ([2]; 23 mg/kg daily for 14 days): 1.8 fold | increase in 8-OHdG intensity (immunofluorescence) ([2]; 40 mg/kg daily for 14 days): 2.2 fold | increase in COX-2 intensity (immunofluorescence) ([2]; 40 mg/kg daily for 14 days): 2.8 fold | increase in MDA intensity (immunofluorescence) ([2]; 40 mg/kg daily for 14 days): 2.0 fold
